{"source": "paper PMC6988309", "about": "“Preclinical efficacy for a novel tyrosine kinase inhibitor, ArQule 531 against acute myeloid leukemia” (Journal of Hematology & Oncology, 2020)", "key": {"[1]": {"experiment": "MTT proliferation assay 72 h, Ba/F3 lines with FLT3-ITD, TKD or both (all lines together)", "type": "cell-based, murine", "conditions": "Mus musculus, BaF3, range across cell lines, read-out: IC50 range over the Ba/F3 FLT3 mutant cell lines"}, "[2]": {"test_system": "Ba/F3 FLT3-ITD Parental", "description": "CellTiter 96 Aqueous MTS reagent (Promega, Madison, WI) was added to cells followed by a 3-h incubation at 37 °C, 5% CO2. The absorbance was measured at 490 nm using DTX 880 plate reader and the half maximal inhibitory concentration (IC50) was calculated using GraphPad Prism 7 (GraphPad Software, La Jolla, CA) and SAS/STAT software (SAS v9.4 for Windows, SAS Institute, Inc., Cary, NC)."}}, "note": "Where “and” joins values, the source holds several entries; their conditions need not be identical. Equal values may be shown once.", "data": [{"smiles": "O=C(c1ccc(Oc2ccccc2)cc1Cl)c1c[nH]c2ncnc(N[C@@H]3CC[C@@H](CO)OC3)c12", "note": "[ARQ 531]", "values": [{"measurement": "IC50", "setting": "[1]", "result": "1200 to 7600", "unit": "nM"}, {"measurement": "IC50", "setting": "[2]", "result": "2710 nM and 2530 nM"}]}]}
